Article PMC9229927, “New Alk(en)ylhydroxycyclohexanes with Tyrosinase Inhibition Potential from Harpephyllum caffrum Bernh. Gum Exudate” (Molecules, 2022)

What follows are molecules tested against mushroom tyrosinase (Agaricus bisporus, UniProt C7FF04).
Sequence of mushroom tyrosinase (C7FF04 1-392): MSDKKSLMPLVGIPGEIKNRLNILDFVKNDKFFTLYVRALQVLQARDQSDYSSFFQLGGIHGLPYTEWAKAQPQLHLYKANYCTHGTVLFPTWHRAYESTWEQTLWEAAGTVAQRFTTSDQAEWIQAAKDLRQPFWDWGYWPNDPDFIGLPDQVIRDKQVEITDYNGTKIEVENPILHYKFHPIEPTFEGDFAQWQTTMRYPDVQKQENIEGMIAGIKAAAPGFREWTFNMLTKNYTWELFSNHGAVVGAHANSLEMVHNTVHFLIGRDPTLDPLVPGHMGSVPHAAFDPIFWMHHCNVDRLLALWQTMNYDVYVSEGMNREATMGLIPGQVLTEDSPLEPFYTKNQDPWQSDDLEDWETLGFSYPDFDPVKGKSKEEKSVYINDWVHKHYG
Assay type: biochemical
Protocol: Tyrosinase inhibitory potential of alk(en)ylhydroxycyclohexanes has not been previously reported.
Tyrosinase inhibitory activity was determined spectrophotometrically with slight modifications. Briefly, tested samples were dissolved in DMSO to a final concentration of 20 mg/mL. In a 24-well plate, 30 μL of the samples was added to 970 μL of potassium phosphate buffer (0.1 M, pH 6.5) and serially diluted two-fold. The mixture (70 μL) was transferred to a 96-well plate containing 30 μL of potassium phosphate buffer (0.1 M, pH 6.5) to obtain increasing concentration range of (1.56–200 μg/mL). Then, 30 μL of mushroom tyrosinase solution (333 Units/mL in phosphate buffer, pH 6.5) was added to each mixture, which was then incubated at 25 °C for 5 min. Thereafter, 110 µL of 2 mM L-tyrosine was added in all wells of a 96-well microtiter plate and further incubated for 30 min at 25 °C. […] The absorbance of the mixture was read at 492 nm using an ELISA microplate reader (VarioSkan Flash, Thermo Fisher Scientific, Vantaa, Finland). All experiments were performed in triplicates. The percent inhibition of tyrosinase was calculated as follows: Tyrosinase inhibitory (%)=(Ao−A1/Ao) × 100 where A0 is the absorbance of the negative control with the enzyme without test samples, A1 is the absorbance of the test samples and enzyme.
Data were expressed as mean ± SD from three independent experiments. The IC50 values, corresponding to the concentration required to inhibit 50% of tyrosinase activity, were calculated from a sigmoidal dose–response of a non-linear regression and R-square values representing the best fit of the model were determined by Pearson nonlinear regression using the GraphPad Prism 5 software (GraphPad Software, San Diego, CA, USA). A one-way ANOVA was performed and differences between means were separated using the Tukey multiple comparison test at p < 0.05. Experiments were performed in triplicate.
In the case of `CCCC/C=C\CCCCCCCCCCCc1cccc(O)c1` [Compound 1, 3-heptadec-12′-Z-enyl phenol], the “tyrosinase inhibition, rating in words” value is reported as “moderately active”.
In the case of `CCCC/C=C\CCCCCCCCCCC[C@@]1(O)CCC[C@@H](O)C1` [Compound 2, (1R,3R)-1,3-dihydroxy-3-[heptadec-12′(Z)-enyl]cyclohexane], the “tyrosinase inhibition, rating in words” value is reported as “good inhibition”.
For `CCCC/C=C\CCCCCCCCCCCC[C@@]1(O)C[C@@H](O)[C@H](O)[C@@H](O)[C@H]1O` [Compound 3, (1S,2S,3S,4S,5R)-1,2,3,4,5-pentahydroxy-5-[octadec-13′(Z)-enyl]cyclohexane], the “tyrosinase inhibition, rating in words” value was “good inhibition”.
With `CCCC/C=C\CCCCCCCCCCC[C@]1(O)CC[C@@H](O)[C@H](O)C1` [Compound 4, (1R,2S,4R)-1,2,4-trihydroxy-4-[heptadec-12′(Z)-enyl]cyclohexane] the “tyrosinase inhibition, rating in words” value was “moderately active”.
